# Where “and” joins values, the source holds several entries; their conditions need not be identical. Equal entries are not always repeated. Where two headings read alike, the source gives them in different places.
# Experiments:
# LXRα = target: T1, LXRα (Homo sapiens, UniProt Q13133); test: Gal4 one hybrid reporter gene (transactivation) assay in U2OS cells, LXRα; assay type: cell-based; conditions: for EC50: U2OS cells, Gal4-LXRα LBD, read-out: LXRα transactivation pEC50 (converted); for Emax: U2OS, 40 h, read-out: LXRα transactivation Agonist efficacy, %
# T1 construct: expression vectors pSG5-Gal4-LXRα LBD or pSG5-Gal4-LXRβ LBD; expressed in transfected cells; host or cells: U2OS osteosarcoma cells
# T1 sequence (Q13133 209-447 limits assumed): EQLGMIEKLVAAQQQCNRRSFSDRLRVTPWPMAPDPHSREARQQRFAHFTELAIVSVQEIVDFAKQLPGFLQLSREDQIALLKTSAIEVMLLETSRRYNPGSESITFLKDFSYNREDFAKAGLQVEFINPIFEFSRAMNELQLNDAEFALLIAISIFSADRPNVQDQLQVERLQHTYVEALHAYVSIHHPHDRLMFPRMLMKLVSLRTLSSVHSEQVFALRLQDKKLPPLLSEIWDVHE
# Description: (§1) Transactivation assays were performed in U2OS osteosarcoma cells (ATCC, USA). […] Ligands were added at ten different concentrations 2 h post transfection and the luciferase activity was measured after 40 h.
# plasma triglycerides = test: plasma TG induction in C57BL/6 mice vs plasma compound concentration (log-linear model); assay type: in vivo, mouse; conditions: for TG induction in plasma m (scaling factor) / TG induction in plasma C2, drug concentration corresponding to a twofold increase in TG levels: (% RSE); for TG induction in plasma Attributed class: mouse, in vivo
# Description: Male C57BL/6JOlaHsd mice were retrieved from Harlan Laboratories (Horst, The Netherlands) around 7 weeks of age. […] Mice were given ad libitum access to water and standard rodent chow during the studies.
# Compounds were given daily by oral gavage, 5 ml kg^−1, at doses ranging from 0.1 to 100 μmol kg^−1 of body weight for 4 days. Animals were terminated 3 h after the last dose.
# (§2) At termination, the whole-blood volume was drawn from isoflurane-anesthetized mice via an incision in the carotid artery into EDTA blood tubes (S-Monovette®, EDTA KE/1.3 mL, Sarstedt, Nümbrecht, Germany or BD Microtainers®, Benton, Dickinson and Company, Franklin Lakes, New Jersey, USA). Blood samples were placed on ice and centrifuged within an hour (15 min, 2500 × g, 4 °C or 5 min, 16000 × g, 4 °C). The plasma was then dispensed in separate tubes and kept at −80 °C for later analysis of compound concentration and TG levels. For the analysis of intestinal Abca1 transcript levels, a 3–5-mm long segment of the duodenum was excised and cleared from any gut contents. Tissues were instantly snap frozen in liquid nitrogen and stored at −80 °C.
# Plasma triglyceride levels were analyzed by using the Triglycerides/Glycerol Blanked reagent kit (Roche Diagnostics GMBH, Mannheim, Germany). Samples were measured on an ABX Pentra 400 instrument (Horiba Medical, Irvine, California, USA) or Cobas Mira plus instrument (Roche Diagnostics Corporation, Indianapolis, USA). […] Absorbance was measured by using a Tecan Infinite M200 plate reader (Tecan Austria GmbH, Salzburg, Austria).
# About 25 µL of plasma was precipitated with 150 µL of cold acetonitrile containing 0.2% formic acid. […] Sample analysis was performed by using a reversed-phase high-pressure liquid chromatography system coupled to a Quattro Ultima triple-quadrupole mass spectrometer (Waters, UK). A rapid 2-min 4–90% (vol/vol) acetonitrile (containing 0.2% formic acid) gradient was used for chromatographic separation.
# To rank the compounds, the drug concentration (C2) needed to generate a twofold increase in plasma TG was estimated by rearranging Eq. (2):3 C2=exp^2fold−BL−1/m^1/γ
# LXRβ = target: T2, LXRβ (Homo sapiens, UniProt P55055); test: Gal4 one hybrid reporter gene (transactivation) assay in U2OS cells, LXRβ; assay type: cell-based; conditions: for Emax: U2OS, 40 h, read-out: LXRβ transactivation Agonist efficacy, %
# T2 construct: expression vectors pSG5-Gal4-LXRα LBD or pSG5-Gal4-LXRβ LBD; expressed in transfected cells; host or cells: U2OS osteosarcoma cells
# T2 sequence (P55055 222-460 limits assumed): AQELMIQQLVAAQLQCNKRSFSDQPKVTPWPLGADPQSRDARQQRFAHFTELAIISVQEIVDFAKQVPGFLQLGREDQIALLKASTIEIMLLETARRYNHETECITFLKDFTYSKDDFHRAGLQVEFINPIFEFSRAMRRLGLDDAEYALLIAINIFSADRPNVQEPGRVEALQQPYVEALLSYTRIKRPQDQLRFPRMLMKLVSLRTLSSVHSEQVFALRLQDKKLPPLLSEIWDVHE
# Description: as §1
# Abca1 mRNA in intestine = test: intestinal Abca1 mRNA induction in C57BL/6 mice (Emax model); assay type: in vivo, mouse; conditions: for ED50: Mus musculus
# Description: All procedures involving animals were conducted in accordance with accepted standards of good animal practice and approved by the respective local animal ethics committees (Gothenburg region Local Ethics Review Committee on Animal experiments and University of Virginia Animal Care and Use Committee). Male C57BL/6JOlaHsd mice were retrieved from Harlan Laboratories (Horst, The Netherlands) around 7 weeks of age. In the studies with BMS-852907, male 8-week C57BL/6J mice (Jackson Laboratories) were used. Mice were given ad libitum access to water and standard rodent chow during the studies.
# Solid compounds were solubilized in PEG400/Ethanol/Solutol/Water solution (36.3/9.1/4.6/50%). Compounds were given daily by oral gavage, 5 ml kg^−1, at doses ranging from 0.1 to 100 μmol kg^−1 of body weight for 4 days. Animals were terminated 3 h after the last dose.
# as §2
# Snap-frozen intestinal tissues were quickly disrupted in QIAzol® (Qiagen, Hilden, Germany) or PureZOL™ (Bio-Rad Laboratories, Hercules, California, USA) by using a bead tissue homogenizer. Lysates were mixed with chloroform and centrifuged at 6000 × g for 15 min at 4 °C. Total RNA was purified from the upper aqueous phase on the ABI PRISM™ 6100 Nucleic Acid PrepStation (Applied Biosystems, Foster City, USA) or by using the RNeasy kit® (QIAGEN Sciences Inc., Germantown, Maryland, USA) including on-column DNase treatment by using the respective manufacturer’s protocol and reagents. Concentration of total RNA was determined on a NanoDrop™ ND-100 Spectrophotometer (Saveen Werner, Lögstrup, Sweden). The RNA templates were transferred to cDNA by reverse transcription by using the High-Capacity cDNA Reverse Transcription Kit (Applied Biosystems, Foster City, USA) according to the manufacturer’s protocol. Mouse ATP-binding cassette subfamily A member 1 (Abca1) was analyzed by using the forward primer 5′-[…]-3′, reverse primer 5′-[…]-3′, and the dual-labeled probe 5′-6FAM-[…]-TAMRA-3′. Mouse ribosomal protein large P0 (Rplp0, 36b4) was analyzed by using the forward primer 5′-[…]-3′, reverse primer 5′-[…]-3′, and the FAM-labeled probe 5′-[…]-TAMRA-3′. In the study with BMS-852907, RT-qPCR reactions were carried out in separate triplicate wells for Abca1 and Rplp0, respectively, by using 20 ng of cDNA template, 385 nM of the above-mentioned primers, and iQ™ SYBR Green Supermix (Bio-Rad, Hercules, California, USA) on a Bio-Rad MyiQ instrument (Bio-Rad, Hercules, California, USA). In the other studies, 400 nM Abca1 forward and reverse primers, 200 nM Abca1 probe, 200 nM Rplp0 forward and reverse primers, and 100 nM Rplp0 probe were mixed with 15 ng of cDNA template and TaqMan™ Gene Expression Master Mix (Applied Biosystems, Foster City, USA). The RT-qPCR reactions were performed on a 7500 Real-time PCR system (Applied Biosystems, Foster City, USA). Cycle threshold values (Ct) were retrieved from the instrument software. Relative changes in mRNA expression were calculated by using the comparative cycle method (2^−ΔΔCt). […]
# [1] = U2OS cells, Gal4-LXRβ LBD, value (SD, n), read-out: LXRβ transactivation pEC50 (converted)
# [2] = po, read-out: Abca1 mRNA induction in intestine Attributed class
# [3] = oral gavage daily for 4 days, C57BL/6 mice, (% RSE), read-out: Abca1 mRNA induction in intestine ED50
# [4] = maximal activation compared with a reference full agonist, value (SD, n)
smiles,measurement,setting,value
CC(C)(O)c1cn(-c2ccc(-c3cc(F)c(CO)c(S(C)(=O)=O)c3)cc2F)c(C(C)(C)c2c(Cl)cccc2Cl)n1 [BMS-852927],"agonist activity in the Gal4 reporter gene assay, LXRα",LXRα,No signal was observed
same,TG class,plasma triglycerides,non-lipogenic
same,TG induction in plasma m (scaling factor),plasma triglycerides,0.066 (18)
same,TG induction in plasma Attributed class,plasma triglycerides,Non-lipogenic
same,"TG induction in plasma C2, drug concentration corresponding to a twofold increase in TG levels",plasma triglycerides,477 μM and 477 (35) μM
same,"agonist activity in the Gal4 reporter gene assay, LXRβ",LXRβ,No signal was observed
same,EC50,LXRβ; [1],> 20000 nM
same,ED50,Abca1 mRNA in intestine; [2],≤ 11.3 µmol/kg
same,ED50,Abca1 mRNA in intestine; [3],2.1 µmol/kg
"O=C(O)Cc1ccc(CNC(=O)[C@@H]2Cc3ccccc3N2S(=O)(=O)c2ccc(-c3ccccc3C(F)(F)F)cc2)cc1 [F1, reference compound]",Potency-based LXRα selectivity over LXRβ,LXRα; Gal4 reporter gene assays,7 fold
same,EC50,"LXRα; value (SD, n)",562 nM
same,Emax,LXRα; [4],84%
same,TG induction in plasma m (scaling factor),plasma triglycerides,12.1 (38)
same,TG induction in plasma Attributed class,plasma triglycerides,Lipogenic
same,"TG induction in plasma C2, drug concentration corresponding to a twofold increase in TG levels",plasma triglycerides,0.025 (72) μM
same,EC50,LXRβ; [1],3890 nM
same,Emax,LXRβ; [4],105%
same,class of intestinal Abca1 induction,Abca1 mRNA in intestine,high ABCA1
same,ED50,Abca1 mRNA in intestine; [2],≤ 11.3 µmol/kg
same,ED50,Abca1 mRNA in intestine; [3],< 30 µmol/kg
"O=C(O)Cc1cccc(OCCCN(Cc2cccc(C(F)(F)F)c2Cl)CC(c2ccccc2)c2ccccc2)c1 [GW3965, reference compound]",EC50,"LXRα; value (SD, n)",1100 nM
same,Emax,LXRα; [4],93.5%
same,TG class,plasma triglycerides,non-lipogenic
same,TG induction in plasma m (scaling factor),plasma triglycerides,0.244 (18)
same,TG induction in plasma Attributed class,plasma triglycerides,Non-lipogenic
same,"TG induction in plasma C2, drug concentration corresponding to a twofold increase in TG levels",plasma triglycerides,40.2 μM and 40.2 (33) μM
same,EC50,LXRβ; [1],347 nM
same,Emax,LXRβ,77.1%
same,ED50,Abca1 mRNA in intestine; [2],≤ 11.3 µmol/kg
same,ED50,Abca1 mRNA in intestine; [3],0.969 µmol/kg
"Fc1ccc(-c2c3cccc(C(F)(F)F)c3nn2Cc2ccc(F)cc2Cl)cc1 [LXR-623, reference compound]",EC50,"LXRα; value (SD, n)",2570 nM
same,Emax,LXRα; [4],102%
same,TG class,plasma triglycerides,non-lipogenic
same,TG induction in plasma Attributed class,plasma triglycerides,Non-lipogenic
same,trend in plasma TG levels,plasma triglycerides; within the explored concentration range,no trends toward increased TG levels
same,EC50,LXRβ,1860 nM
same,Emax,LXRβ,94.3%
same,class of intestinal Abca1 induction,Abca1 mRNA in intestine,low ABCA1 inducers
same,ED50,Abca1 mRNA in intestine; [2],> 11.3 µmol/kg
same,ED50,Abca1 mRNA in intestine; [3],31.5 µmol/kg
"O=S(=O)(c1ccccc1)N(CC(F)(F)F)c1ccc(C(O)(C(F)(F)F)C(F)(F)F)cc1 [T0901317, reference compound]","LXRα transactivation Agonist efficacy, %",LXRα; [4],"100.8 (7.4, n = 4) %"
same,TG induction in plasma m (scaling factor),plasma triglycerides,0.784 (17)
same,TG induction in plasma Attributed class,plasma triglycerides,Lipogenic
same,"TG induction in plasma C2, drug concentration corresponding to a twofold increase in TG levels",plasma triglycerides,4.41 (33) μM
same,"LXRβ transactivation Agonist efficacy, %",LXRβ; [4],"95.5 (6.4, n = 2) %"
same,ED50,Abca1 mRNA in intestine; [2],≤ 11.3 µmol/kg
same,ED50,Abca1 mRNA in intestine; [3],4.11 µmol/kg
